# Experiments:
# type 2 diabetic rats = test: In vivo pharmacodynamics study: blood glucose in type 2 diabetic rats; design: species or system Sprague-Dawley (SD) rats; settings: T2DM rats, subcutaneous 65 μg/kg
# Experimental: SD rats were fed high-fat diets containing 45% fat to induce insulin resistance. After one-month diets, a standard 16 h fast in SD rats was conducted, and a 30 mg/mL STZ solution prepared with 0.1 mol/L citrate-sodium citrate buffer (pH 4.5) was injected intraperitoneally at a dose of 30 mg/kg (avoid light, the injection was completed within 30 min). Then the rats were given sufficient water and fasted. Restored the diet after 2 h. If the fasting blood glucose was higher than 16.67 mmol/L for two consecutive times, and the rats were accompanied by significant polydipsia, polyphagia, polyuria, and weight loss, it is considered to be successfully modeled and subsequent experiments could be carried out. To evaluate therapeutic effects, thirty T2DM rats were randomly divided into five groups, fasted overnight, and labeled respectively. […] Blood samples were collected from the tail tip at 0, 0.5, 1, 2, 3, 4, 6, and 10 h after administration to observe the changes in blood glucose levels, and the blood glucose-time curve was plotted.
# HT-29 cells = test: Cytotoxicity by MTT assay, 4 h incubation; type: cell-based, Human; settings: 0.03-1 μM
# Experimental: (§1) The cytotoxicity of chitosan-based nanoparticles was measured by MTT assay. Caco-2, HT-29, and Raji-B cells at the logarithmic growth stage were inoculated on 96-well plates at 5 × 10^3 cells per well, respectively. The cells were cultured at 37 °C, 5% CO2 for 48 h, then the culture medium was removed and 150 μL of drug-containing culture medium was added to the final concentrations of 1, 0.5, 0.25, 0.125, 0.06, and 0.03 μM. After incubation for 4 h, 20 μL of MTT solution (5 mg/mL) was added to each well, which was incubated for an additional 4 h. Then, the culture medium was discarded and replaced with 150 μL dimethyl sulfoxide. The plates were placed on the shaker and oscillated for 10 min.
# (§2) The absorbance was measured at 570 nm using an enzyme marker (ST360, KHB, Shanghai, China). Cell viability was calculated as a percentage of the absorbance relative to that of the control.
# Caco-2 cells = test: Cytotoxicity by MTT assay, 4 h incubation; type: cell-based, Human; settings: 0.03-1 μM
# Experimental: as §1, §2
# Raji-B cells = test: Cytotoxicity by MTT assay, 4 h incubation; type: cell-based, Human; settings: 0.03-1 μM
# Experimental: as §1, §2
Compound,time of minimum blood glucose concentration (type 2 diabetic rats) [h],change of blood glucose concentration (type 2 diabetic rats; 0-10 h),cytotoxicity to HT-29 cells (HT-29 cells),cytotoxicity to Caco-2 cells (Caco-2 cells),cytotoxicity to Raji B cells (Raji-B cells)
Insulin,3,decreased significantly within 3 h,,,
CCN(CC)c1ccc2c(-c3ccccc3C(=O)O)c3ccc(=[N+](CC)CC)cc-3oc2c1 [Rhodamine B],,,no cytotoxicity,no cytotoxicity,no cytotoxicity

# — article PMC9183037 (Polymers, 2022)
